Literature values in US20080051430A1, “Acylated Piperidine Derivatives as Melanocortin 4-Receptor Agonists” (priority 2004, published 2008).

Key:
[1] = test system: males with psychogenic erectile dysfunction
[2] = test system: men with a variety of organic risk factors; settings: subcutaneous injection; compared with placebo
[3] = in vivo, po

For “Ac-Nle-c[Asp-His-DPhe-Arg-Trp-Lys]-NH2 [MT-II]”, the duration of action ([1]; in vivo) is given as “approximately 2.5 hours”, the “time to onset of erection” value ([1]; in vivo) is given as 10 to 20 min and the response rate ([1]; injected intramuscularly or subcutaneously) is given as 75%. For the same substance, the “level of sexual desire” value [2] was “significantly higher” and the “absorption into the systemic circulation” value [3] was “not absorbed into the systemic circulation”.
